Reference: patent US6630490B2, “Methods for treatment of disease-induced peripheral neuropathy and related conditions” (NeoTherapeutics, Inc., priority 2000, dated 2003)
One block for each compound: values may come before it.

Columns and labels:
[1] = test system: unoperated rats, mDCN-T13 heat, pinch and touch fields; settings: systemically injected NGF; Diamond et al., 1992; Pertens et al., 1999; cited from earlier work
unoperated animals [2] = settings: rat, in vivo; cited from earlier work
unoperated animals [3] = assay: Detection of hyperalgesia; format: in vivo, rat
Description: Detection of hyperalgesia: Nociceptive responses were studied in lightly restrained animals as described in […] et al. (1999), using the latency of foot withdrawal from a 49° C. footbath, the temperature of the footbath at which withdrawal was initiated, and the heat thresholds for evoking the “CTM” reflex from back skin (see above). Hyperalgesia is defined here as a lowering of the threshold of a nociceptive stimulus required to produce a reflex response, and/or a reduction in the latency of that response. Administration of AIT-082: AIT-082 was obtained from NeoTherapeutics Inc., Irvine, Calif., USA. A 50 mg/ml solution in sterile 0.9% NaCl was made up freshly every three days. The standard administration protocol was a daily i.p. injection of 50 mg/kg AIT-082.

[4] = test system: rats with isolated mDCN-T13 field; assay: Collateral sprouting of nociceptive nerves into adjacent denervated skin; format: in vivo, rat
Excerpt: (§1) “Isolation” of sensory fields: This procedure, the initial step in the study of collateral sprouting and was done as described in Diamond et al. (1992). Its purpose was to isolate the cutaneous innervation territory, or field, of a selected nerve within a vast surround of denervated back skin. The nerve used was the medial branch of the left dorsal cutaneous nerve (DCN), at segmental level T13 (mDCN-T13). The isolation of its field was achieved by surgically eliminating on the left side the 4 DCNs immediately rostral and caudal to DCN-T13 (respectively T9-T12 and L1-L4), the lateral branch of DCN-T13, and the 4 lateral cutaneous nerves supplying the flank skin adjacent to the DCN-T13 territory.
(§2) Mapping of sensory fields: As described in Nixon et al. (1984) and Doucette and Diamond (1987), the borders of the isolated mechano-nociceptive and heat-nociceptive fields, subserved respectively by the Aδ and C fibers mDCN-T13, were determined by systematically applying across the skin forceps pinches (for mechano-nociception) and brief applications of a 60° C. heat probe (for heat-nociception); the presence of nociceptive endings is indicated during these procedures when the stimuli elicit the “CTM reflex” response, a contraction of the underlying cutaneus trunci muscle, which causes a characteristic and easily recognized skin twitch (Theriault and Diamond, 1988). The low-threshold (“touch”) fields were measured electrophysiologically as described by Jackson and Diamond (1984). The DCN-T13 was placed across bipolar platinum electrodes that fed into a preamplifier and thence to an oscilloscope and audio amplifier. Brushing innervated skin with a fine bristle generates impulses in the large myelinated Aβ axons, producing audible responses that disappear abruptly as the bristle crosses into denervated territory. The areas of the cutaneous territories of the three sensory modalities studied (“pinch”, “heat” and “touch”) were measured using the MCID image analysis system (Imaging Research, Inc., St. Catharines, Ontario, Canada). […]

[5] = test system: control and diabetic rats; assay: Formalin test in control and diabetic rats; format: in vivo, rat
Description: (§3) Induction of diabetes: Female, adult, Sprague-Dawley rats (250-275 g) were fasted overnight prior to the intraperitoneal injection of a freshly made solution of streptozotocin in 0.9% saline to deliver a dose of 50 mg/kg body weight. Food was restored and animals left for 3 days before determination of glucose levels in a blood sample obtained by tail prick. Animals with blood glucose levels >15 mmol/l were considered diabetic and used in the study. Treatment with the AIT-082 began on the day that hyperglycemia was confirmed. […] If they presented as diabetic then they were added to the study, if not they were omitted.
Formalin test: Rats were restrained manually and formalin (50 μl of 0.2% solution) injected sub-dermally into the hindpaw dorsum. Rats were then placed in an observation chamber and flinching behaviors counted in 1 minute blocks every 5 minutes for 1 hour.

[6] = test system: control and diabetic rats; assay: Thermal response latency in control and diabetic rats; format: in vivo, rat; settings: for thermal hyperalgesia (week 4) and hypoalgesia (week 8): diabetic rats
Description: as §3
Thermal response latency: Rats were placed in an observation chamber on the surface (floor temperature 30° C.) of a modified Hargreaves Apparatus (UARD, San Diego Calif.) and allowed to acclimate for 5 minutes. For measurement of thermal response latency, a heat source (delivering 4.5 amps to give a paw withdrawal latency of approximately 10 seconds in control rats) was maneuvered underneath the hind paw. The heat source was turned on manually and a stop clock activated until it shut off automatically when the paw was moved (24 sec cut off time). The procedure was repeated 4 times on the same paw at 5 minute intervals and the median of values 2-4 used to represent the thermal response latency.

[7] = test system: unoperated rats, mDCN-T13 heat, pinch and touch fields; assay: Nociceptive nerve sprouting in normally innervated skin (mDCN-T13 field mapping); format: in vivo, rat
Excerpt: as §1, §2

[8] = test system: rats with isolated mDCN-T13 field receiving anti-NGF; assay: Sprouting blocked by anti-NGF treatment, rescue by AIT-082; format: in vivo, rat
Excerpt: as §1
Mapping of sensory fields: As described in Nixon et al. (1984) and Doucette and Diamond (1987), the borders of the isolated mechano-nociceptive and heat-nociceptive fields, subserved respectively by the Aδ and C fibers mDCN-T13, were determined by systematically applying across the skin forceps pinches (for mechano-nociception) and brief applications of a 60° C. heat probe (for heat-nociception); the presence of nociceptive endings is indicated during these procedures when the stimuli elicit the “CTM reflex” response, a contraction of the underlying cutaneus trunci muscle, which causes a characteristic and easily recognized skin twitch (Theriault and Diamond, 1988). […]

[9] = test system: control and diabetic rats, sciatic nerve; assay: Sensory nerve conduction velocity (SNCV) in control and diabetic rats; format: in vivo, rat
Description: as §3
Nerve Conduction Velocity (NCV): Rats were anesthetized with halothane (4% in O2 for induction, 2-3% for maintenance) and the sciatic nerve exposed via an incision in the flank followed by separation of underlying musculature by blunt dissection. A thermistor probe was placed adjacent to the nerve and the wound closed with a skin clamp and a second, rectal, probe was positioned. Nerve and rectal temperature was maintained at 37° C. by a heating lamp and thermal pad connected to a temperature regulator and the thermistor probes. […] The distance between the two sites of stimulation was measured using surface calipers and NCV calculated as […]. NCV measurements were made in triplicate and the median used to represent the NCV. The thermistor probes were removed, the skin incision closed with wound clips and coated with Betadine and the animal withdrawn from halothane and monitored until it recovers consciousness. Rats were then returned to their cages with free access to food and water.

[10] = unoperated rats, 50 mg/kg daily for 20 days, versus saline

Compound: NGF: nerve growth factor, exogenous, systemically injected
sprouting in normal skin [1]: induces sprouting in normal skin
hyperalgesia (unoperated animals [2]): causes hyperalgesia

hyperalgesia, threshold temperature for foot withdrawal from a hot probe (unoperated animals [3]; FIG. 4(a)): does not cause hyperalgesia
hyperalgesia, threshold temperature for evoking the CTM reflex in dorsal skin (unoperated animals [3]; FIG. 4(b)): does not cause hyperalgesia
hyperalgesia, latency of foot withdrawal from a 49° C. hot bath (unoperated animals [3]; FIG. 4(c)): does not cause hyperalgesia
Compound: O=C(CCn1cnc2c(=O)[nH]cnc21)Nc1ccc(C(=O)O)cc1 [AIT-082, N-4-carboxyphenyl-3-(6-oxohydropurin-9-yl) propanamide]
hyperalgesia (a number of recognized tests) (unoperated animals [3]; standard AIT-082 administration, at any time during or following treatment): failed to provide any evidence for the occurrence of this phenomenon
amount by which field expansions in the AIT-082 sprouting group exceeded controls ([4]; after 20 days of treatment, comparison from raw data of FIGS. 1 and 2): approximately equal to the expansion in field areas induced in unoperated animals
expansion of nociceptive fields into adjacent denervated skin relative to control group ([4]; daily AIT-082 after field isolation, mapping every 3 or 4 days): increased expansion of the nociceptive fields
time at which increased field expansion became apparent ([4]; daily AIT-082 versus saline): about 13 days post-isolation
formalin-evoked flinching ([5]; control and diabetic rats): dose-dependently reduced
formalin-evoked hyperalgesia by phase ([5]; diabetic rats): suppression of hyperalgesia was notable in phases 1, Q, and 2a
thermal response latency ([6]; control rats): without effect
thermal hyperalgesia (week 4) and hypoalgesia (week 8) [6]: dose-dependently prevented both hyperalgesia and hypoalgesia
thermal hyperalgesia (week 4) and hypoalgesia (week 8) ([6]; high dose 100 mg/kg): completely prevented both hyperalgesia at week 4 and hypoalgesia at week 8
limited dose-response study for inducing nociceptive sprouting ([7]; daily i.p. injection of 50 mg/kg, not illustrated): well above threshold for inducing nociceptive sprouting, but below saturating levels
nociceptive fields, pinch and heat (area of innervation) [7, 10]: expanded significantly
touch fields (NGF-insensitive Aβ fibers) [7, 10]: unaffected
sprouting under supra-threshold ("high") anti-NGF treatment ([8]; daily AIT-082 plus about 5-fold anti-NGF dose, fields after 22 days): sprouting continued to be absent
sprouting under threshold ("low") anti-NGF treatment ([8]; daily AIT-082 plus daily anti-NGF, pinch and heat fields after 22 days): totally rescued the sprouting
SNCV ([9]; control rats): no effect
SNCV deficit ([9]; diabetic rats, week 4): no effect
SNCV ([9]; diabetic rats, week 8): dose-dependent improvement
